Consider twelve compounds from patent publication US10745360B2, “Quinoxaline compounds, method for preparing the same and use thereof” (Development Center for Biotechnology, priority 2014, dated 2020).

Molecules are shown by their SMILES. pIC50: −log10 of the molar value. Where only a bound is given, the exact number is not on record here.

In one assay the target is T1, C-Raf kinase (Homo sapiens, UniProt P04049).
T1 construct: purchased Upstate Biotechnology
The experiment in a line: C-Raf kinase assay ([33P] incorporation into MEK1 K97R). It is filed as biochemical. The note with it: recombinant C-Raf, 8 μM ATP, 30 min, 30° C.; read-out: IC50 ranking against C-Raf kinase. How it is done:
(§1) Inhibition of kinase activity by a test compound disclosed herein was estimated by quantifying the amount of [^33P] incorporation of a substrate in the presence of the test compound. Standard assay conditions were 2 ng of recombinant C-Raf kinase (Upstate Biotechnology) with 500 ng MEK1(K97R) in assay buffer (8 μM ATP, 0.5 μCi [^33P]ATP (specific activity 3000 Ci/mmol, PerkinElmer), 50 mM Tris/HCl (pH 7.5), and 1 mM EGTA, 1 mM Na3VO4, 1% 2-mercaptoethanol, 0.1% Brij 35, and 0.2 mg/ml BSA), and the test compound (diluted with 4% DMSO) or DMSO alone (as a control) in a final volume of 25 μL. Reactions were incubated at 30° C. for 30 min and stopped by adding 3% phosphoric acid, harvested onto a 96-well GF/B UniFilter (PerkinElmer) using a unifilter harvester (PerkinElmer), and counted with a TopCount microplate scintillation counter (PerkinElmer). The IC50 values of inhibitors were determined after carrying out assays at 3-fold serially diluted concentrations of each compound in duplication. The results were analyzed using linear regression software (GraphPad Prism 4; GraphPad Software Inc.).

Assay [1] has as its system SK-MEL-2 melanoma cell with wild type B-Raf (B-Raf^wt) and NRAS^Q61R mutation. In words: Cell proliferation assay (CELLTITER 96), SK-MEL-2. In kind it is cell-based. The settings on record: Homo sapiens; SK-MEL-2, 72 hours; given as bound; read-out: Cytotoxicity (IC50 Ranking) SK-MEL-2 (NRAS^Q61R, B-Raf^wt). Here is the method:
(§2) Inhibition of cell growth by compounds was measured using CELLTITER 96® assay. The cytotoxicity of compounds was evaluated in B-Raf^V600E mutant A375 melanoma cell, B-Raf^V600E mutant COLO205 colon cancer cell, and SK-MEL-2 melanoma cell with wild type B-Raf (B-Raf^wt) and NRASQ^Q61R mutation. A375 and COLO205 cell line were cultured in DMEM containing 10% FCS and incubated at 37° C. in 5% CO2 atmosphere. SK-MEL-2 cell line was cultured in MEM containing 10% FCS and incubated at 37° C. in 5% CO2 atmosphere. A375, COLO205 and SK-MEL-2 cell were seeded into 96-well plates at 2000, 2000, and 4000 cells/well, respectively, and allowed to adhere for overnight. Then, these seeded cells were treated with increasing concentrations of the test compounds and incubated for another 72 hours. At the end of the incubation, CELLTITER 96® Aqueous One Solution Reagent (Promega) was added and incubated for 4 hours. Cell viability was determined by measuring absorbance at 490 nm using EMAX® microplate reader (Molecular Devices).
(§3) The 50% inhibitory concentration (IC50) value was calculated by plotting the percentage of growth inhibition against the concentration of compound, using GraphPad Prism5 software for curve fitting.

Assay [2] deals with B-Raf^V600E mutant COLO205 colon cancer cell. The experiment in a line: Cell proliferation assay (CELLTITER 96), COLO205. The settings on record: Homo sapiens, COLO 205; COLO205, 72 hours; read-out: Cytotoxicity (IC50 Ranking) COLO205 (B-Raf^V600E). In kind it is cell-based. How it is done: as §2, §3
The target of a further assay is T2, B-Raf kinase (Homo sapiens, UniProt P15056).
T2 construct: purchased Upstate Biotechnology
The experiment in a line: B-Raf kinase assay ([33P] incorporation into MEK1 K97R). In kind it is biochemical. The settings on record: recombinant B-Raf, 8 μM ATP, 30 min, 30° C.; read-out: IC50 ranking against B-Raf kinase. How it is done: Inhibition of kinase activity by a test compound disclosed herein was estimated by quantifying the amount of [^33P] incorporation of a substrate in the presence of the test compound. Standard assay conditions were 5 ng of recombinant B-Raf kinase (Upstate Biotechnology) with 500 ng MEK1(Map-erk kinase; K97R) in the assay buffer (8 μM ATP, 0.5 μCi [^33P]ATP (specific activity 3000 Ci/mmol, PerkinElmer), 50 mM Tris/HCl (pH 7.5), and 1 mM EGTA, 1 mM Na3VO4, 1% 2-mercaptoethanol, 0.1% Brij 35, and 0.2 mg/ml BSA) in a final volume of 25 μL. Reactions were incubated at 30° C. for 30 min and stopped by adding 3% phosphoric acid, harvested onto a 96-well GF/B UniFilter (PerkinElmer) using a unifilter harvester (PerkinElmer), and counted with a TopCount microplate scintillation counter (PerkinElmer). The IC50 values of inhibitors were determined after carrying out assays at 3-fold serially diluted concentrations of each compound in duplication. The results were analyzed using linear regression software (GraphPad Prism 4; GraphPad Software Inc.).

In assay [3] the test system is B-Raf^V600E mutant A375 melanoma cell. The experiment in a line: Cell proliferation assay (CELLTITER 96), A375. The settings on record: Homo sapiens, A-375; A375, 72 hours; read-out: Cytotoxicity (IC50 Ranking) A375 (B-Raf^V600E). It is filed as cell-based. Here is the method: as §2, §3
In another assay the target is T3, B-Raf^V600E kinase (Homo sapiens, UniProt P15056, V600E).
T3 construct: purchased Upstate Biotechnology
The experiment in a line: B-Raf V600E kinase assay ([33P] incorporation into MEK1 K97R). The note with it: recombinant B-Raf^V600E, 8 μM ATP, 30 min, 30° C.; read-out: IC50 ranking against B-Raf^V600E kinase. In kind it is biochemical. Here is the method:
as §1, with “were 5” for “were 2”, “recombinant B-Raf^V600E” for “recombinant C-Raf”, “ng MEK1 (K97R)” for “ng MEK1(K97R)”

T3 sequence (P15056 whole entry V600E): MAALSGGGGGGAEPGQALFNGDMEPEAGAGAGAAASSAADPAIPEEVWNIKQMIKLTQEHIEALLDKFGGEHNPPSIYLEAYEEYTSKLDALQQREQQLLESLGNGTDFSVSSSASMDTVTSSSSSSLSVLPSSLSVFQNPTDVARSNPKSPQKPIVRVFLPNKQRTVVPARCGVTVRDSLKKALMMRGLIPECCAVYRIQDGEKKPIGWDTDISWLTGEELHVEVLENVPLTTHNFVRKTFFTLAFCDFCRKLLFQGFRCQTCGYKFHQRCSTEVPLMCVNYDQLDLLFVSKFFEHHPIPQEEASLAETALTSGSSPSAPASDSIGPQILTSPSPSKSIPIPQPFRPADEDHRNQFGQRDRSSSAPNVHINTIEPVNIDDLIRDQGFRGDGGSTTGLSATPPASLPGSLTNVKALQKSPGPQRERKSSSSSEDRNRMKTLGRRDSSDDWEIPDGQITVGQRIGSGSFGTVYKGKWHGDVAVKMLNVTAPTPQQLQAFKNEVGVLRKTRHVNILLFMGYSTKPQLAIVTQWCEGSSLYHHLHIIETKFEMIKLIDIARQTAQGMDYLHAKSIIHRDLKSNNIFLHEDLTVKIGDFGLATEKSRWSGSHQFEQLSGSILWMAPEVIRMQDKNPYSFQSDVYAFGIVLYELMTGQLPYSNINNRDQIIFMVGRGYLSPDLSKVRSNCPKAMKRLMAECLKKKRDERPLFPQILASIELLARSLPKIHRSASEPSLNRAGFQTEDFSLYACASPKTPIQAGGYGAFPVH
T1 sequence (P04049 whole entry): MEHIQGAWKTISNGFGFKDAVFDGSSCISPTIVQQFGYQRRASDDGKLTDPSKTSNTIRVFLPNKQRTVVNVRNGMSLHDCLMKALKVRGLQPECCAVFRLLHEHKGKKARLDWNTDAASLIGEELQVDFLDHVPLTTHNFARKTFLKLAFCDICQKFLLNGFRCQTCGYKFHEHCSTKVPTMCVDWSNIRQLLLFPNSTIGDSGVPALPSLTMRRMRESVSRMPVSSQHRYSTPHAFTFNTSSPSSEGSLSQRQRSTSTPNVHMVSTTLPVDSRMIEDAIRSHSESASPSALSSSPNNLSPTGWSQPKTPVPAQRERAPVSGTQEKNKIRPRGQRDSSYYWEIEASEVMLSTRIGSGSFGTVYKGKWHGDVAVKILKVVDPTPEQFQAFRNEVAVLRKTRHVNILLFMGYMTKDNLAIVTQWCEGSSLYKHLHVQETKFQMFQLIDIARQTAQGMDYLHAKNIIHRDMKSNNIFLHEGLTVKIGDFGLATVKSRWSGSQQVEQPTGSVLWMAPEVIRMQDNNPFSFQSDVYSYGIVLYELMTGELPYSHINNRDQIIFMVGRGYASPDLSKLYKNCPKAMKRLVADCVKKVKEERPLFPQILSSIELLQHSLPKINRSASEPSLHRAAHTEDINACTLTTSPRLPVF
T2 sequence (P15056 whole entry): as the sequence (P15056 whole entry V600E) above, with E600V counted along it

In general, pIC50 refers to the negative decadic logarithm of the IC50, by convention in mol/L. As for `CCCS(=O)(=O)Nc1ccc(F)c(Nc2ccc3ncc(Nc4cccnc4)nc3c2)c1F` [compound 12, N1-(2,4-difluoro-3-{[3-(3-pyridylamino)-6-quinoxalinyl]amino}phenyl)-1-propanesulfonamide], the pIC50 on C-Raf kinase was greater than 6.52; in assay [1] it was less than 5.00; in assay [2], 6.00 to 6.52; at B-Raf kinase, greater than 6.52; in assay [3] it was 5.00 to 6.00; at B-Raf^V600E kinase, greater than 6.52.

`CCCS(=O)(=O)Nc1ccc(F)c(Nc2ccc3ncc(Nc4ccc(F)cc4F)nc3c2)c1F` [compound 13, N1-(3-{[3-(2,4-difluoroanilino)-6-quinoxalinyl]amino}-2,4-difluorophenyl)-1-propanesulfonamide]: the pIC50 was greater than 6.52 on C-Raf kinase; less than 5.00 in assay [1]; 5.00 to 6.00 in assay [2]; greater than 6.52 on B-Raf kinase; 6.00 to 6.52 in assay [3]; greater than 6.52 on B-Raf^V600E kinase.

Turning to `COc1cnc2ccc(Nc3c(F)ccc(NS(C)(=O)=O)c3F)c([N+](=O)[O-])c2n1` [compound 14, N-{2,4-difluoro-3-[(3-methoxy-5-nitro-6-quinoxalinyl)amino]phenyl}methanesulfonamide], the pIC50 was 6.00 to 6.52 on C-Raf kinase; less than 5.00 in assay [1]; 5.00 to 6.00 in assay [2]; 6.00 to 6.52 at B-Raf kinase; 5.00 to 6.00 in assay [3]; 6.00 to 6.52 on B-Raf^V600E kinase.

Consider `CCCS(=O)(=O)Nc1ccc(F)c(Nc2ccc3ncc(O)nc3c2C#N)c1F` [compound 15, N1-{3-[(5-cyano-3-hydroxy-6-quinoxalinyl)amino]-2,4-difluorophenyl}-1-propanesulfonamide], for which the pIC50 at C-Raf kinase was greater than 6.52; in assay [1], less than 5.00; in assay [2], 6.00 to 6.52; at B-Raf kinase, greater than 6.52; in assay [3], 6.00 to 6.52; on B-Raf^V600E kinase it was greater than 6.52.

As for `CCCS(=O)(=O)Nc1ccc(F)c(Nc2ccc3ncc(OCCN4CCOCC4)nc3c2C#N)c1F` [compound 16, N1-(3-{[5-cyano-3-(2-morpholinoethoxy)-6-quinoxalinyl]amino)-2,4-difluorophenyl)-1-propanesulfonamide], the pIC50 at C-Raf kinase is greater than 6.52; in assay [1] it was less than 5.00; in assay [2], greater than 6.52; on B-Raf kinase it was greater than 6.52; in assay [3] it was greater than 6.52; at B-Raf^V600E kinase it was greater than 6.52.

With `CCCS(=O)(=O)Nc1ccc(F)c(Nc2ccc3ncc(OCC)nc3c2C#N)c1F` [compound 17, N-(3-(5-cyano-3-ethoxyquinoxalin-6-ylamino)-2,4-difluorophenyl)propane-1-sulfonamide], the negative logarithm of the IC50 (pIC50) is greater than 6.52 at C-Raf kinase; less than 5.00 in assay [1]; greater than 6.52 in assay [2]; greater than 6.52 at B-Raf kinase; greater than 6.52 in assay [3]; greater than 6.52 on B-Raf^V600E kinase.

In the case of `CCCS(=O)(=O)Nc1ccc(F)c(Nc2ccc3ncc(N(C)C)nc3c2C#N)c1F` [compound 18, N-(3-(5-cyano-3-(dimethylamino)quinoxalin-6-ylamino)-2,4-difluorophenyl)propane-1-sulfonamide], the pIC50 at C-Raf kinase was greater than 6.52; in assay [1], less than 5.00; in assay [2] it was greater than 6.52; on B-Raf kinase, greater than 6.52; in assay [3], greater than 6.52; at B-Raf^V600E kinase, greater than 6.52.

Consider `CCCS(=O)(=O)Nc1ccc(F)c(Nc2ccc3ncc(N4CCOCC4)nc3c2C#N)c1F` [compound 19, N-(3-(5-cyano-3-morpholinoquinoxalin-6-ylamino)-2,4-difluorophenyl)propane-1-sulfonamide], for which the pIC50 at C-Raf kinase is greater than 6.52; in assay [1], less than 5.00; in assay [2], greater than 6.52; at B-Raf kinase it was greater than 6.52; in assay [3] it was greater than 6.52; on B-Raf^V600E kinase, greater than 6.52.

With `CCCS(=O)(=O)Nc1ccc(F)c(Nc2ccc3ncc(NC)nc3c2C#N)c1F` [compound 20, N-(3-(5-cyano-3-(methylamino)quinoxalin-6-ylamino)-2,4-difluorophenyl)propane-1-sulfonamide], the negative-log IC50 (pIC50) on C-Raf kinase was greater than 6.52; in assay [1], less than 5.00; in assay [2], greater than 6.52; at B-Raf kinase, greater than 6.52; in assay [3] it was greater than 6.52; on B-Raf^V600E kinase, greater than 6.52.

With `CCCS(=O)(=O)Nc1c(F)ccc(Nc2ccc3ncc(OC)nc3c2C#N)c1F` [compound 21, N-(3-(5-cyano-3-methoxyquinoxalin-6-ylamino)-2,6-difluorophenyl)propane-1-sulfonamide], the pIC50 at C-Raf kinase is greater than 6.52; in assay [1], less than 5.00; in assay [2] it was greater than 6.52; on B-Raf kinase it was greater than 6.52; in assay [3], greater than 6.52; at B-Raf^V600E kinase, greater than 6.52.

`CCCS(=O)(=O)Nc1cc(Nc2ccc3ncc(OC)nc3c2C#N)ccc1F` [compound 22, N-(5-(5-cyano-3-methoxyquinoxalin-6-ylamino)-2-fluorophenyl)propane-1-sulfonamide]: the pIC50 was greater than 6.52 at C-Raf kinase; less than 5.00 in assay [1]; greater than 6.52 in assay [2]; greater than 6.52 at B-Raf kinase; greater than 6.52 in assay [3]; greater than 6.52 on B-Raf^V600E kinase.

As to `CCCS(=O)(=O)Nc1ccc(F)c(Nc2ccc3ncc(N4CCOCC4)nc3c2C#N)c1` [compound 23, N-(3-(5-cyano-3-morpholinoquinoxalin-6-ylamino)-4-fluorophenyl)propane-1-sulfonamide], the pIC50 on C-Raf kinase is 5.00 to 6.00; in assay [1] it was less than 5.00; in assay [2], greater than 6.52; on B-Raf kinase it was 6.00 to 6.52; in assay [3] it was greater than 6.52; on B-Raf^V600E kinase, 6.00 to 6.52.
